Results published in patent publication US12344610B2, “APOL1 inhibitors and methods of use” (Maze Therapeutics, Inc., priority 2022, dated 2025).

target: T1, APOL1 G2 (Homo sapiens, UniProt O14791, DEL388-389); test: APOL1-mediated calcium transport (calcium influx) assay, HEK T-REx/GCaMP6f/APOL1 G2 K6.3 cells, FLIPR TETRA; type: cell-based; conditions: prevention of calcium influx; geometric mean of at least 2 assay runs; † = average of a technical replicate from a single assay run
T1 construct: expressed in transfected cells; host or cells: HEK293 T-REx clonal line stably expressing GCaMP6f (HEK T-REx/GCaMP6f/APOL1 G2 K6.3), doxycycline induced
T1 sequence (O14791 with tags, fused parts or gaps DEL388-389): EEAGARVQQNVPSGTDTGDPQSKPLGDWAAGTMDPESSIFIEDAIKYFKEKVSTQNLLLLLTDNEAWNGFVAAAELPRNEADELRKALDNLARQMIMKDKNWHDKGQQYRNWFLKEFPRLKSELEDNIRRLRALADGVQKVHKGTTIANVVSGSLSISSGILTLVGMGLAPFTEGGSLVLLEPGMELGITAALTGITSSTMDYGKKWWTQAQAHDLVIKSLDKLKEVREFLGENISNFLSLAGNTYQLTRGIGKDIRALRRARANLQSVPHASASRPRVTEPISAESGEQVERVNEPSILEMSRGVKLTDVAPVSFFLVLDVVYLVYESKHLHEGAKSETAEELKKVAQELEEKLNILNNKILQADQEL
Outline: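 A HEK293 T-REx clone stably expressing GCaMP6f had APOL1 G2 induced with doxycycline (20 ng/mL solution added) for 6 h. Cells were then washed into Ca2+-free Tyrode's buffer (pH 7.4) and preincubated with compounds (duplicate 8-point) for 10 min at room temperature. Ca2+ injection to 5 mM final produced FLIPR GCaMP fluorescence, giving AC50 for influx inhibition (geometric mean, ≥2 runs).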

SMILES | AC50 [nM]
CN1CCc2cc(OCCN3CCC4(CC3)C(=O)Nc3ccc(C#N)cc34)ccc2S1(=O)=O [Compound 154, 1′-{2-[(2-methyl-1,1-dioxo-3,4-dihydro-2H-1λ^6,2-benzothiazin-6-yl)oxy]ethyl}-2-oxo-1,2-dihydrospiro[indole-3,4′-piperidine]-5-carbonitrile] | 869
CS(=O)(=O)c1ccc(OCCN2CCC3(CC2)C(=O)Nc2ccc(Cl)cc23)cc1Cl [Compound 155, 5-chloro-1′-[2-(3-chloro-4-methanesulfonylphenoxy)ethyl]-1,2-dihydrospiro[indole-3,4′-piperidin]-2-one] | 452
CS(=O)(=O)c1ccc(OCCN2CCC3(CC2)C(=O)Nc2ccc(C#N)cc23)cc1Cl [Compound 156, 1′-[2-(3-chloro-4-methanesulfonylphenoxy)ethyl]-2-oxo-1,2-dihydrospiro[indole-3,4′-piperidine]-5-carbonitrile] | 468
CC(C)(C#N)c1ccc(OCCN2CCC3(CC2)C(=O)Nc2ccc(C#N)cc23)cc1 [Compound 157, 1′-{2-[4-(1-cyano-1-methylethyl)phenoxy]ethyl}-2-oxo-1,2-dihydrospiro[indole-3,4′-piperidine]-5-carbonitrile] | 933
CC1(S(=O)(=O)c2ccc(OCCN3CCC4(CC3)C(=O)Nc3ccc(Cl)cc34)cn2)COC1 [Compound 158, 5-chloro-1′-[2-({6-[(3-methyloxetan-3-yl)sulfonyl]pyridin-3-yl}oxy)ethyl]-1,2-dihydrospiro[indole-3,4′-piperidin]-2-one] | 845
CS(=O)(=O)C1(c2ccc(OCCN3CCC4(CC3)C(=O)N(CCO)c3ccc(Cl)cc34)cc2)COC1 [Compound 160, 5-chloro-1-(2-hydroxyethyl)-1′-{2-[4-(3-methanesulfonyloxetan-3-yl)phenoxy]ethyl}-1,2-dihydrospiro[indole-3,4′-piperidin]-2-one] | 898
Cc1cc(OCCN2CCC3(CC2)C(=O)Nc2ccc(Cl)cc23)cnc1S(C)(=O)=O [Compound 161, 5-chloro-1′-{2-[(6-methanesulfonyl-5-methylpyridin-3-yl)oxy]ethyl}-1,2-dihydrospiro[indole-3,4′-piperidin]-2-one] | 539
O=C1CCc2cc(OCCN3CCC4(CC3)C(=O)Nc3ccc(Cl)cc34)ccc2N1CCO [Compound 162, 5-chloro-1′-(2-{[1-(2-hydroxyethyl)-2-oxo-1,2,3,4-tetrahydroquinolin-6-yl]oxy}ethyl)-1,2-dihydrospiro[indole-3,4′-piperidin]-2-one] | 603
CS(=O)(=O)c1ccc(OCCN2CCC3(CC2)C(=O)Nc2ccc(Cl)cc23)cc1OC(F)F [Compound 163, 5-chloro-1′-{2-[3-(difluoromethoxy)-4-methanesulfonylphenoxy]ethyl}-1,2-dihydrospiro[indole-3,4′-piperidin]-2-one] | 528
CS(=O)(=O)c1ccc(OCCN2CCC3(CC2)C(=O)Nc2ccc(C#N)cc23)cc1OC(F)F [Compound 164, 1′-{2-[3-(difluoromethoxy)-4-methanesulfonylphenoxy]ethyl}-2-oxo-1,2-dihydrospiro[indole-3,4′-piperidine]-5-carbonitrile] | 555
CS(=O)(=O)C1(c2ccc(OCCN3CCC4(CC3)C(=O)Nc3ccc(Cl)cc34)cc2C(F)(F)F)COC1 [Compound 165, 5-chloro-1′-{2-[4-(3-methanesulfonyloxetan-3-yl)-3-(trifluoromethyl)phenoxy]ethyl}-1,2-dihydrospiro[indole-3,4′-piperidin]-2-one] | 558
CS(=O)(=O)C1(c2ccc(OCCN3CCC4(CC3)C(=O)Nc3ccc(C#N)cc34)cc2C(F)(F)F)COC1 [Compound 166, 1′-{2-[4-(3-methanesulfonyloxetan-3-yl)-3-(trifluoromethyl)phenoxy]ethyl}-2-oxo-1,2-dihydrospiro[indole-3,4′-piperidine]-5-carbonitrile] | 618
O=C1Nc2ccc(Cl)cc2C12CCN(CCOc1ccc3c(c1)CCNS3(=O)=O)CC2 [Compound 167, 6-(2-{5-chloro-2-oxo-1,2-dihydrospiro[indole-3,4′-piperidin]-1′-yl}ethoxy)-3,4-dihydro-2H-1λ^6,2-benzothiazine-1,1-dione] | 467
N#Cc1ccc2c(c1)C1(CCN(CCOc3ccc4c(c3)CCNS4(=O)=O)CC1)C(=O)N2 [Compound 168, 1′-{2-[(1,1-dioxo-3,4-dihydro-2H-1λ^6,2-benzothiazin-6-yl)oxy]ethyl}-2-oxo-1,2-dihydrospiro[indole-3,4′-piperidine]-5-carbonitrile] | 1390
CN1C(=O)Cc2cc(OCCN3CCC4(CC3)C(=O)Nc3ccc(C#N)cc34)cc(F)c21 [Compound 169, 1′-{2-[(7-fluoro-1-methyl-2-oxo-2,3-dihydro-1H-indol-5-yl)oxy]ethyl}-2-oxo-1,2-dihydrospiro[indole-3,4′-piperidine]-5-carbonitrile] | 1210
CC1(Oc2ncc(OCCN3CCC4(CC3)C(=O)Nc3ccc(Cl)cc34)cn2)COC1 [Compound 172, 5-chloro-1′-[2-({2-[(3-methyloxetan-3-yl)oxy]pyrimidin-5-yl}oxy)ethyl]-1,2-dihydrospiro[indole-3,4′-piperidin]-2-one] | 479
CCS(=O)(=O)C1(c2ccc(OCCN3CCC4(CC3)C(=O)Nc3ccc(C#N)cc34)cc2)COC1 [Compound 174, 1′-(2-{4-[3-(ethanesulfonyl)oxetan-3-yl]phenoxy}ethyl)-2-oxo-1,2-dihydrospiro[indole-3,4′-piperidine]-5-carbonitrile] | 484
CS(=O)(=O)C1(c2ccc(OCCN3CCC4(CC3)C(=O)Nc3ccc(Cl)cc34)cc2)CCC1 [Compound 180, 5-chloro-1′-{2-[4-(1-methanesulfonylcyclobutyl)phenoxy]ethyl}-1,2-dihydrospiro[indole-3,4′-piperidin]-2-one] | 756
CS(=O)(=O)C1(c2ccc(OCCN3CCC4(CC3)C(=O)Nc3ccc(C#N)cc34)cc2)CCC1 [Compound 181, 1′-{2-[4-(1-methanesulfonylcyclobutyl)phenoxy]ethyl}-2-oxo-1,2-dihydrospiro[indole-3,4′-piperidine]-5-carbonitrile] | 656
CS(=O)(=O)C1(c2ccc(OCCN3CCC4(CC3)C(=O)Nc3ccc(Cl)cc34)cc2)CC2(COC2)C1 [Compound 182, 5-chloro-1′-[2-(4-{6-methanesulfonyl-2-oxaspiro[3.3]heptan-6-yl}phenoxy)ethyl]-1,2-dihydrospiro[indole-3,4′-piperidin]-2-one] | 574
CS(=O)(=O)C1(c2ccc(OCCN3CCC4(CC3)C(=O)N(CC(F)(F)F)c3ccc(C#N)cc34)cc2)COC1 [Compound 184, 1′-{2-[4-(3-methanesulfonyloxetan-3-yl)phenoxy]ethyl}-2-oxo-1-(2,2,2-trifluoroethyl)-1,2-dihydrospiro[indole-3,4′-piperidine]-5-carbonitrile] | 1280
CS(=O)(=O)C1(c2ccc(OCCN3CCC4(CC3)C(=O)N(CC(F)(F)F)c3ccc(Cl)cc34)cc2)COC1 [Compound 185, 5-chloro-1′-{2-[4-(3-methanesulfonyloxetan-3-yl)phenoxy]ethyl}-1-(2,2,2-trifluoroethyl)-1,2-dihydrospiro[indole-3,4′-piperidin]-2-one] | 993
CS(=O)(=O)C1(c2ccc(OCCN3CCC4(CC3)C(=O)Nc3ccc(Cl)cc34)cc2)CCOCC1 [Compound 188, 5-chloro-1′-{2-[4-(4-methanesulfonyloxan-4-yl)phenoxy]ethyl}-1,2-dihydrospiro[indole-3,4′-piperidin]-2-one] | 513
CN1C(=O)C2(CCN(CCOc3cc(F)c(C4(S(C)(=O)=O)COC4)c(F)c3)CC2)c2cc(C#N)ccc21 [Compound 189, 1′-{2-[3,5-difluoro-4-(3-methanesulfonyloxetan-3-yl)phenoxy]ethyl}-1-methyl-2-oxo-1,2-dihydrospiro[indole-3,4′-piperidine]-5-carbonitrile] | 349
CC(C)(c1ccc(OCCN2CCC3(CC2)C(=O)Nc2ccc(C#N)cc23)cn1)S(C)(=O)=O [Compound 191, 1′-(2-{[6-(2-methanesulfonylpropan-2-yl)pyridin-3-yl]oxy}ethyl)-2-oxo-1,2-dihydrospiro[indole-3,4′-piperidine]-5-carbonitrile] | 1170
